Data set [1] relates to P. aeruginosa PAO1 wild type cells. The data set can be described thus: Planktonic growth inhibition, minimum inhibitory concentration. Format: cell-based. As to conditions: M9 minimal medium, 20 h growth, OD600nm of 35% or less.
Data set [2] deals with β-lactamase (penicillinase, Sigma Aldrich). The data set can be described thus: Amperometric nitric oxide release on exposure to penicillinase. Format: biochemical. As to conditions: non-NO-releasing cephalosporin alone, in the presence or absence of penicillinase.
Protocol: Arrows indicate addition of the following to a reaction vial containing 10 mL Tris buffer at pH 7.0: (a) 10 μL of 100 mM cephalosporin-3′-diazeniumdiolate, (b) 10 μl 1 U/μl penicillinase, (c) 20 μl 1 U/μl penicillinase, (d) 80 μL of 10 mM free radical scavenger PTIO.
Amperometric characterization of nitric oxide release from Compound 15. (a) Nitric oxide release in the presence of penicillinase at varying pH. Arrows indicate addition of the following to a reaction vial containing 10 mL Tris buffer at pH 9.0 (thick line), 7.0 (dashed line) or 5.0 (dotted line): (i) 10 μL of 150 mM Compound 15, (ii) 5 μL of 0.1 U/μL penicillinase, (iii) 10 μL of 0.1 U/μL penicillinase, (iv) 80 μL of 10 mM free radical scavenger PTIO. (b) Nitric oxide release in the presence of β-lactamase-expressing P. aeruginosa (thick line) or non-β-lactamase-expressing E. coli (dotted line) cell extracts. Arrows indicate addition of the following to a reaction vial containing 10 mL Tris buffer at pH 7.0: (i) 10 μL of 150 mM Compound 15, (ii) 100 μL cell extract, (iii) 200 μL cell extract, (iv) PTIO. […] The data is representative of at least three independent experiments. […]
For data set [3], the system named is P. aeruginosa NSGFP reporter strain (nirS-GFP). The data set is classed as cell-based. Conditions: control treatments alone.
Protocol: To study nitric oxide release in intact cells of P. aeruginosa, the P. aeruginosa NSGFP reporter strain was used (Barraud et al., 2009). This strain harbours a gene reporter construct that expresses green fluorescent protein (GFP) when the nitric oxide-inducible nirS gene is expressed. P. aeruginosa NSGFP cells were grown with or without ampicillin at subinhibitory concentration (50 μg/ml) to induce β-lactamase activity.
For data set [4], the system named is P. aeruginosa PAO1 wild type biofilms. Nature of the data set: Biofilm dispersal assay, 24-well batch culture, PAO1. Format: cell-based. As to conditions: 10 min exposure, alone.
Protocol: P. aeruginosa PAO1 wild type ATCC and MA67 strains, P. aeruginosa FRD1, a mucoid, cystic fibrosis (CF) isolate (Oilman and Chakrabarty, 1981), and the clinical strain P. aeruginosa 18A, which was isolated from CF sputum samples of chronically infected individual in Tasmania (Kirov et al, 2007) were used for biofilm dispersal assays. Biofilms were grown in M9 minimal medium (containing 48 mM Na2HPO4, 22 mM KH2PO4, 9 mM NaCl, 19 mM NH4Cl, pH 7.2, 2 mM MgSO4, 20 mM glucose, and 100 μM CaCl2) in 24-well plates batch cultures at 37° C. with shaking at 200 rpm. After 6 h incubation for PAO1 wild-type biofilms or 24 h incubation for FRD1 and 18A biofilms, treatments were added to each well in less than 1 min per plate and the plates were incubated for a further 10 min at 37° C. with shaking at 200 rpm. Planktonic biomass was quantified by direct measurement of OD600 of the supernatant, and the remaining biofilm biomass was quantified by crystal violet staining (O'Toole and Kolter, 1998).
Data set [5] has as its system Established P. aeruginosa biofilms. The data set can be described thus: Anti-biofilm efficacy of tobramycin or ciprofloxacin with compound 21 (Table 1). As to conditions: tobramycin 80 μg/mL or ciprofloxacin 5 μg/mL, 1 h, mean ± SEM. Format: cell-based. An excerpt: Values represent the log-fold reductions in cfu compared to control biofilms and are the mean of two independent experiments (±SEM).

Data set [6] has as its system extracellular β-lactamases of P. aeruginosa. The data set is classed as biochemical. As to conditions: P. aeruginosa culture treated 1 h; imipenem 0.5 μg/ml or ampicillin 100 μg/ml.
Protocol: (c) Nitric oxide release in the presence of supernatants of P. aeruginosa cultures grown for 5 h in the absence of antibiotic then treated for 1 h with extracellular β-lactamase-inducing imipenem a 0.5 μg/ml (thick line) or ampicillin at 100 μg/ml (dotted line). Arrows indicate addition of the following to a reaction vial containing 10 mL Tris buffer at pH 7.0: (i) 10 μL of 150 mM Compound 15, (ii) 500 μL supernatant, (iii) 500 μL supernatant, (iv) PTIO.

Converted amounts (≈) assume the structure as drawn. Structures can show the parent of a compound that is named as a salt. Where two headings read alike, the source gives them in different places.

These results are taken from patent US9156855B2, “Regulation of nitric oxide release and biofilm development” (Newsouth Innovation Pty Limited, priority 2011, dated 2015).

In the case of `CCN(CC)[N+]([O-])=N[O-].[Na+]` [DEA, O^2-sodium 1-(N,N-diethylamino)diazen-1-ium-1,2-diolate], the MIC – broadly, the lowest concentration found to suppress growth – in data set [1] was determined as 16 mM.

For `CC(=O)OCC1=C(C(=O)O)N2C(=O)[C@@H](NC(=O)Cc3cccs3)[C@H]2SC1` [cephalothin], the results for the nitric oxide release entry in data set [2] and in data set [2] (listed as cefalotin) were “no release of nitric oxide was observed” and “undetectable”, respectively. For the same molecule, the GFP fluorescence result in data set [3] is on record as “no effect on GFP fluorescence”. The biofilm dispersal entry in data set [4] is “did not induce significant dispersal events”. The minimum inhibitory concentration (MIC) in data set [1] (Pseudomonas aeruginosa, PAO1, read-out: MIC) was found to be 16 mM (≈ 6340 µg/mL).

For the molecule `CCN(CC)/[N+]([O-])=N/OCC1=C(C(=O)O)N2C(=O)C(NC(=O)Cc3ccccc3)C2SC1` (stereo not drawn) [Compound 15], the melting point – broadly, the temperature of the solid-liquid transition – is 84 to 86 °C.

With `CCN(CC)/[N+]([O-])=N/OCC1=C(C(=O)O)N2C(=O)C(NC(=O)Cc3ccccc3)C2SC1` (stereo not drawn) (as salt: potassium) [Compound 21], the melting point lay in the range of 35 to 37 °C.

Regarding `NC[C@H]1O[C@H](O[C@H]2[C@H](O)[C@@H](O[C@H]3O[C@H](CO)[C@@H](O)[C@H](N)[C@H]3O)[C@H](N)C[C@@H]2N)[C@H](N)C[C@@H]1O` [Tobramycin], the “Log Reduction in Biofilm cfu” value in data set [5] (Compound 21 0 μM (antibiotic alone)) was 2.15 ± 0.16; in data set [5] (with Compound 21 10 μM), 3.92 ± 0.06; in data set [5] (with Compound 21 100 μM), 3.58 ± 0.15.

In the case of `CC1(C)S[C@@H]2[C@H](NC(=O)[C@H](N)c3ccccc3)C(=O)N2[C@H]1C(=O)O` [ampicillin], the “induction of extracellular β-lactamase expression” value in data set [6] is given as “failure of ampicillin to induce expression”.
